Legend:
Experiment in all cases: relative viability (nuclei count vs DMSO), 5 days (fraction); higher = more cells survive
[1] = compound: O=C(O)c1ccc2c(c1)nc(Nc1cccc(Cl)c1)c1ccncc12 [Silmitasertib] + C[C@]1(O)C[C@@H](c2nc(-c3ccc4ccc(-c5ccccc5)nc4c3)c3c(N)nccn32)C1 [Linsitinib] (partner 1 µM)
Outline: (§1)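 Nuclei were stained with Hoechst during a one-step fixation (final 0.05% Triton X-100, 1% formaldehyde, 1 ug/ml Hoechst) carried out 5 days after dosing, then counted on 4× images. The cells, lung cancer lines in 1536-well plates, had been dosed by pin tool the day after seeding with one drug alone or a fixed anchor-drug dose plus five library-drug doses (not always all listed) in √10 steps. Relative viability is the nuclei count in treated wells divided by that in vehicle wells, and each value is the median of duplicate plates.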

[2] = compound: O=C(O)c1ccc2c(c1)nc(Nc1cccc(Cl)c1)c1ccncc12 [Silmitasertib] + Cc1nc(NC(=O)N2CCC[C@H]2C(N)=O)sc1-c1ccnc(C(C)(C)C(F)(F)F)c1 [Alpelisib] (partner 2 µM)
Outline: as §1

[3] = compound: O=C(O)c1ccc2c(c1)nc(Nc1cccc(Cl)c1)c1ccncc12 [Silmitasertib] + CS(=O)(=O)N1CCN(Cc2cc3nc(-c4cccc5[nH]ncc45)nc(N4CCOCC4)c3s2)CC1 [Pictilisib] (partner 1 µM)
Outline: as §1

[4] = compound: O=C(O)c1ccc2c(c1)nc(Nc1cccc(Cl)c1)c1ccncc12 [Silmitasertib] + CC(C)C[C@H](NC(=O)[C@H](Cc1ccccc1)NC(=O)c1cnccn1)B(O)O [Bortezomib] (partner 0.002 µM)
Outline: as §1

[5] = compound: O=C(O)c1ccc2c(c1)nc(Nc1cccc(Cl)c1)c1ccncc12 [Silmitasertib] + C[C@@H](Oc1cc(-c2cnn(C3CCNCC3)c2)cnc1N)c1c(Cl)ccc(F)c1Cl [Crizotinib] (partner 1 µM)
Outline: as §1

Cell Line: LU99A
- relative viability ([1]; first compound 0.04 µM): 0.574
- relative viability ([1]; first compound 0.4 µM): 0.632
- relative viability ([1]; first compound 1.265 µM): 0.396
- relative viability ([1]; first compound 4 µM): 0.361
- relative viability ([2]; first compound 0.04 µM): 0.502
- relative viability ([2]; first compound 0.4 µM): 0.521
- relative viability ([2]; first compound 1.265 µM): 0.399
- relative viability ([2]; first compound 4 µM): 0.471
- relative viability ([3]; first compound 0.04 µM): 0.325
- relative viability ([3]; first compound 0.4 µM): 0.331
- relative viability ([3]; first compound 1.265 µM): 0.297
- relative viability ([3]; first compound 4 µM): 0.291
- relative viability ([4]; first compound 0.04 µM): 1.22
- relative viability ([4]; first compound 0.4 µM): 1.18
- relative viability ([4]; first compound 1.265 µM): 0.899
- relative viability ([4]; first compound 4 µM): 0.438
- relative viability ([5]; first compound 0.04 µM): 0.583
- relative viability ([5]; first compound 0.4 µM): 0.725
- relative viability ([5]; first compound 1.265 µM): 0.558
- relative viability ([5]; first compound 4 µM): 0.591

Cell Line: LXF-289
- relative viability ([1]; first compound 0.04 µM): 0.91
- relative viability ([1]; first compound 1.265 µM): 1.08
- relative viability ([1]; first compound 4 µM): 1.06
- relative viability ([2]; first compound 0.04 µM): 1.06
- relative viability ([2]; first compound 1.265 µM): 1.09
- relative viability ([2]; first compound 4 µM): 1.07
- relative viability ([3]; first compound 0.04 µM): 0.808
- relative viability ([3]; first compound 1.265 µM): 0.772
- relative viability ([3]; first compound 4 µM): 0.79
- relative viability ([4]; first compound 0.04 µM): 1.02
- relative viability ([4]; first compound 1.265 µM): 1.05
- relative viability ([4]; first compound 4 µM): 0.979
- relative viability ([5]; first compound 0.04 µM): 0.794
- relative viability ([5]; first compound 1.265 µM): 0.842
- relative viability ([5]; first compound 4 µM): 0.825

Cell Line: NCI-H23
- relative viability ([1]; first compound 0.04 µM): 0.662
- relative viability ([1]; first compound 1.265 µM): 0.448
- relative viability ([1]; first compound 4 µM): 0.582
- relative viability ([2]; first compound 0.04 µM): 0.762
- relative viability ([2]; first compound 1.265 µM): 0.67
- relative viability ([2]; first compound 4 µM): 0.547
- relative viability ([3]; first compound 0.04 µM): 0.54
- relative viability ([3]; first compound 1.265 µM): 0.38
- relative viability ([3]; first compound 4 µM): 0.26
- relative viability ([4]; first compound 0.04 µM): 1.01
- relative viability ([4]; first compound 1.265 µM): 0.782
- relative viability ([4]; first compound 4 µM): 0.706
- relative viability ([5]; first compound 0.04 µM): 0.51
- relative viability ([5]; first compound 1.265 µM): 0.384
- relative viability ([5]; first compound 4 µM): 0.362

Cell Line: NCI-H322M
- relative viability ([1]; first compound 0.04 µM): 0.868
- relative viability ([1]; first compound 0.4 µM): 0.809
- relative viability ([1]; first compound 1.265 µM): 0.62
- relative viability ([1]; first compound 4 µM): 0.453
- relative viability ([2]; first compound 0.04 µM): 0.763
- relative viability ([2]; first compound 0.4 µM): 0.71
- relative viability ([2]; first compound 1.265 µM): 0.559
- relative viability ([2]; first compound 4 µM): 0.465
- relative viability ([3]; first compound 0.04 µM): 0.503
- relative viability ([3]; first compound 0.4 µM): 0.503
- relative viability ([3]; first compound 1.265 µM): 0.381
- relative viability ([3]; first compound 4 µM): 0.365
- relative viability ([4]; first compound 0.04 µM): 1.25
- relative viability ([4]; first compound 0.4 µM): 0.881
- relative viability ([4]; first compound 1.265 µM): 0.947
- relative viability ([4]; first compound 4 µM): 0.804
- relative viability ([5]; first compound 0.04 µM): 0.878
- relative viability ([5]; first compound 0.4 µM): 0.662
- relative viability ([5]; first compound 1.265 µM): 0.511
- relative viability ([5]; first compound 4 µM): 0.281

Cell Line: NCI-H358
- relative viability ([1]; first compound 0.04 µM): 0.902
- relative viability ([1]; first compound 0.4 µM): 0.799
- relative viability ([1]; first compound 1.265 µM): 0.585
- relative viability ([1]; first compound 4 µM): 0.607
- relative viability ([2]; first compound 0.04 µM): 0.916
- relative viability ([2]; first compound 0.4 µM): 0.786
- relative viability ([2]; first compound 1.265 µM): 0.65
- relative viability ([2]; first compound 4 µM): 0.48
- relative viability ([3]; first compound 0.04 µM): 0.375
- relative viability ([3]; first compound 0.4 µM): 0.324
- relative viability ([3]; first compound 1.265 µM): 0.322
- relative viability ([3]; first compound 4 µM): 0.288
- relative viability ([5]; first compound 0.04 µM): 0.616
- relative viability ([5]; first compound 0.4 µM): 0.47
- relative viability ([5]; first compound 1.265 µM): 0.493
- relative viability ([5]; first compound 4 µM): 0.407

Cell Line: NCI-H1395
- relative viability ([1]; first compound 0.04 µM): 1.14
- relative viability ([1]; first compound 0.4 µM): 0.919
- relative viability ([1]; first compound 1.265 µM): 1
- relative viability ([1]; first compound 4 µM): 1.01
- relative viability ([2]; first compound 0.04 µM): 1.15
- relative viability ([2]; first compound 0.4 µM): 0.728
- relative viability ([2]; first compound 1.265 µM): 1.03
- relative viability ([2]; first compound 4 µM): 0.965
- relative viability ([3]; first compound 0.04 µM): 0.623
- relative viability ([3]; first compound 0.4 µM): 0.492
- relative viability ([3]; first compound 1.265 µM): 0.587
- relative viability ([3]; first compound 4 µM): 0.427

Cell Line: NCI-H1650
- relative viability ([3]; first compound 0.04 µM): 0.781
- relative viability ([3]; first compound 0.4 µM): 0.459
- relative viability ([3]; first compound 1.265 µM): 0.348
- relative viability ([3]; first compound 4 µM): 0.211
- relative viability ([4]; first compound 0.04 µM): 0.375
- relative viability ([4]; first compound 0.4 µM): 0.192
- relative viability ([4]; first compound 1.265 µM): 0.232
- relative viability ([4]; first compound 4 µM): 0.195
- relative viability ([5]; first compound 0.04 µM): 1.04
- relative viability ([5]; first compound 0.4 µM): 1
- relative viability ([5]; first compound 1.265 µM): 1
- relative viability ([5]; first compound 4 µM): 0.68

Cell Line: NCI-H1793
- relative viability ([1]; first compound 0.04 µM): 1.24
- relative viability ([1]; first compound 0.4 µM): 0.914
- relative viability ([1]; first compound 1.265 µM): 0.735
- relative viability ([1]; first compound 4 µM): 0.79
- relative viability ([2]; first compound 0.04 µM): 0.694
- relative viability ([2]; first compound 0.4 µM): 0.619
- relative viability ([2]; first compound 1.265 µM): 0.656
- relative viability ([2]; first compound 4 µM): 0.564
- relative viability ([3]; first compound 0.04 µM): 0.374
- relative viability ([3]; first compound 0.4 µM): 0.247
- relative viability ([3]; first compound 1.265 µM): 0.274
- relative viability ([3]; first compound 4 µM): 0.31

Cell Line: NCI-H1944
- relative viability ([1]; first compound 0.04 µM): 1.17
- relative viability ([1]; first compound 0.4 µM): 1.15
- relative viability ([1]; first compound 1.265 µM): 0.968
- relative viability ([1]; first compound 4 µM): 1.25
- relative viability ([2]; first compound 0.04 µM): 0.892
- relative viability ([2]; first compound 0.4 µM): 0.765
- relative viability ([2]; first compound 1.265 µM): 0.774
- relative viability ([2]; first compound 4 µM): 0.884
- relative viability ([3]; first compound 0.04 µM): 0.361
- relative viability ([3]; first compound 0.4 µM): 0.442
- relative viability ([3]; first compound 1.265 µM): 0.364
- relative viability ([3]; first compound 4 µM): 0.381
- relative viability ([5]; first compound 0.04 µM): 1.1
- relative viability ([5]; first compound 0.4 µM): 0.856
- relative viability ([5]; first compound 1.265 µM): 0.965
- relative viability ([5]; first compound 4 µM): 1.03

Cell Line: NCI-H2170
- relative viability ([2]; first compound 0.04 µM): 0.805
- relative viability ([2]; first compound 0.4 µM): 0.648
- relative viability ([2]; first compound 1.265 µM): 0.697
- relative viability ([2]; first compound 4 µM): 0.771
- relative viability ([3]; first compound 0.04 µM): 0.32
- relative viability ([3]; first compound 0.4 µM): 0.259
- relative viability ([3]; first compound 1.265 µM): 0.31
- relative viability ([3]; first compound 4 µM): 0.269
- relative viability ([5]; first compound 0.04 µM): 1.22
- relative viability ([5]; first compound 0.4 µM): 0.958
- relative viability ([5]; first compound 1.265 µM): 0.863
- relative viability ([5]; first compound 4 µM): 1.15

Cell Line: SK-MES-1
- relative viability ([1]; first compound 0.04 µM): 1.18
- relative viability ([1]; first compound 0.4 µM): 1.13
- relative viability ([1]; first compound 1.265 µM): 1.11
- relative viability ([1]; first compound 4 µM): 1.09
- relative viability ([2]; first compound 0.04 µM): 0.87
- relative viability ([2]; first compound 0.4 µM): 0.896
- relative viability ([2]; first compound 1.265 µM): 0.788
- relative viability ([2]; first compound 4 µM): 0.446
- relative viability ([3]; first compound 0.04 µM): 0.412
- relative viability ([3]; first compound 0.4 µM): 0.439
- relative viability ([3]; first compound 1.265 µM): 0.456
- relative viability ([3]; first compound 4 µM): 0.373
- relative viability ([5]; first compound 0.04 µM): 1.1
- relative viability ([5]; first compound 0.4 µM): 1.05
- relative viability ([5]; first compound 1.265 µM): 1.06
- relative viability ([5]; first compound 4 µM): 0.656
